Measurements taken from patent publication US20210171912A1, “METHOD FOR SCALABLE SKELETAL MUSCLE LINEAGE SPECIFICATION AND CULTIVATION” (Memphis Meats, Inc., priority 2013, published 2021).

What was measured:
murine C2C12 myoblast = assay: Terminal differentiation of C2C12 myoblasts scored by size and extent of myotube formation; type: cell-based; conditions: low-mitogen differentiation cultures (2% horse serum/DMEM)
02K cell line [1] = assay: Cell survival of differentiating 02K (phase contrast, cell adhesion, CPP32 cleavage, Annexin V); type: cell-based, porcine; conditions: SRM basal medium without hLIF, DOX, PD032591 and PD173074; N-2 and B-27
Method: Without being bound by theory or limited by any specific representative example, it was observed that simultaneous withdrawal of both DOX and the GSK3P inhibitor CHIR99021 from the culture medium supplemented with N-2 and B-27 serum replacements precipitates massive cell death of differentiating 02K parental line within 48 h hours. Withdrawal of DOX in the presence of CHIR99021 enabled survival of the differentiating 02K. Death by differentiating 02K cells in the absence of a GSK3P inhibitor and reciprocal survival in the presence thereof was confirmed by morphology, cell adhesion assay, cleaved caspase-3 accumulation, and Annexin V labeling. […] WNT signaling plays crucial roles in both mesoderm specification from the undifferentiated ground-state pluripotency, pre-myogenic enrichment from unpatterned mesoderm and terminal differentiation of committed myocytes both in vivo and in vitro. In agreement, extended culture of the 02K line in the absence of DOX, and in the presence of a GSK3P inhibitor, supported differentiation toward the pre-myogenic paraxial mesoderm, as evidenced by the expression of PAX3 and concomitant loss of POU5F1 and KLF4 expression.
CHIR99021 inhibition 1 cell death. […] 1. […]
An axis of apoptosis and differentiation is modulated by CHIR99021. […] TUBA is detected an internal protein loading control.

CTNNB1 = assay: Western blot of CTNNB1 and p-CTNNB1 in differentiating 02K; type: cell-based, porcine; conditions: 24 h differentiation milieu transition
Method: Cultures were exposed to 50 nM Calyculin A and 30 μM MG-132 for 3 hours prior to harvest to stabilize detectable levels of p-CTNNB1 for comparative analysis.
(§1) CHIR99021 inhibition 1 cell death. […] 1. As CHIR99021 repressed cell death, supported differentiation toward paraxial mesoderm by the differentiating 02K cell line and enhanced terminal differentiation by the C2C12 cell line, precedent was established to retain the compound in all culture stages.
(§2) CHIR99021 stabilizes CTNNB1 and supports differentiation from the ground state. […] TUBA detected as an internal protein loading control. FIG. 13A indicates ratios of p-CTNNB1/CTNNB1 bands. FIG. 13B indicates ratios of CTNNB1/TUBA bands. […] TUBA detection is shown as an internal protein loading control.

02K cell line [2] = assay: Differentiation marker Western blot (PAX3, POU5F1, KLF4) in differentiating 02K; type: cell-based, porcine; conditions: CHIR99021 supplemented basal medium, absence of DOX
Source text: Expression levels of pluripotency markers, POU5F1 and KLF4, and the pre-myogenic paraxial mesoderm marker PAX3 in 02K cultures differentiated from the ground state in the presence of CHIR99021.
as §1, §2

piPSC-derived myotubes = assay: Calcium transient activity (Fluo-4 AM) in piPSC-derived myotubes; type: cell-based, porcine; conditions: 10 mM caffeine; d6 myotubes; field of view
Source text: Spontaneous and Stimuli-Induced Calcium Transient Activity in piPSC-derived myotubes. To quantify contraction cycles, myotube cultures were stained with Fluo-4 AM calcium dye, washed, and image sequences were captured by confocal microscopy. Dynamic signaling events of an entire field of view (FOV) or single cells were traced and plotted over the imaging course. [s]=seconds.

undifferentiated 02KM = assay: Tolerance of undifferentiated 02KM to 5AC; type: cell-based, porcine
Method: 5AC effects. 5AC exposure prior to, during, and following E2-mediated induction of ‘MyoDER’ was introduced to enable terminal-differentiation of 02KM from myocytes into refractive, filamentous myotubes. The murine C2C12 cell line was used as positive control to screen for optimal conditions for terminal differentiation by 02KM. […] 5AC, a small-molecule epigenetic modulator, was determined previously to enable skeletal muscle transcription in cell lines non-permissive to myogenesis. Moreover, 5AC exposure was further determined to enhance terminal differentiation by the C2C12 cell line.

02KM cells (MyoDER) = assay: 02KM myogenic induction by E2 activation of MyoDER; type: cell-based, porcine; conditions: 10 μM E2, 2 d induction
Method: 02KM myogenic induction. 02KM cells were seeded onto culture dishes coated with poly-D lysine, murine laminin and [sequence] at a density of 4.1×10^3 cells/cm^2 and cultured under 5% O2 in self-renewal medium for 3 d.

Method for 02KM cell line: Terminal Differentiation. […] N-2 and B-27 supplements were used exclusively as serum replacements. Cultures were differentiated for up to 6 d following under 20% O2 following induction regimens (FIG. 20A).
MyoDER was detected with an antibody raised against a MyoD peptide. […] Determinants of MYF5 activation: Western blot analyses. […] MYODER-modified piPSC were cultured 3 days in self-renewal or expansion milieu. […] TUBA is detected as an internal protein loading control.
Terminal Myogenesis of Lineage-Specified piPSC. […] DO and D6 cultures were stained for myosin heavy chain (MyHC) isoforms with a pan-MyHC monoclonal antibody, clone MF20. […] Right panel: myonuclei distribution by myotube ploidy by propidium iodide labeling and flow cytometry analysis. n=3 with standard deviation shown. […] MyoD (MYOD1), myogenin (MYOG) and desmin (DES) expression, dO-d8. TUBA is detected as an internal protein loading control. […] FIG. 20G: Transmission Electron Microscopy, d6 myotubes.

SMILES: Cc1c[nH]c(-c2cnc(NCCNc3ccc(C#N)cn3)nc2-c2ccc(Cl)cc2Cl)n1 [CHIR99021]
- terminal differentiation of C2C12 into multi-nucleated myotubes (murine C2C12 myoblast): enhanced the terminal differentiation of the myogenic murine C2C12 cell line into multi-nucleated myotubes
- cell survival during differentiation (02K cell line [1]): supported both cell survival during differentiation
- CTNNB1 stabilization and phosphorylation status (CTNNB1): stabilizes and modulates the phosphorylation status of the GSK3P substrate, CTNNB1
- pre-myogenic paraxial mesoderm lineage specification (PAX3 expression) (02K cell line [2]): supported pre-myogenic paraxial mesoderm lineage specification of differentiating 02K

SMILES: Cn1c(=O)c2c(ncn2C)n(C)c1=O [caffeine]
- calcium transient activation (piPSC-derived myotubes): FOV calcium transient activation of d6 myotubes

SMILES: Nc1ncn([C@@H]2O[C@H](CO)[C@@H](O)[C@H]2O)c(=O)n1 [5AC, 5-Aza-Cytidine]
- highest dose tolerated (undifferentiated 02KM): 250 nM
- MYF5 expression in 02KM derived myocytes (02KM cell line; 5AC 72 hours preceding DOX withdrawal and 48 hours during E2 induction): MYF5 expression was enhanced
- myotube morphology during terminal differentiation (02KM cell line; 5AC during expansion and induction regimens): formed refractive, anisotropic myotubes

SMILES: C[C@]12CC[C@@H]3c4ccc(O)cc4CC[C@H]3[C@@H]1CC[C@@H]2O [E2, 17-β Estradiol]
- myogenic lineage specification (spindle-like morphology, MYOG, NCAM) (02KM cells (MyoDER)): myogenic lineage specification following 2 d induction culture was confirmed
